Results published in US20040228906A1 (priority 2001, published 2004).
Where two headings read alike, the source gives them in different places.

Tests used:
[1] = cited from earlier work
[2] = cited from earlier work; remark: listed apart in the source
bladder or urethra = conditions: epidural application, 4 μg/kg (Batra) or 2 μg/kg (Drenger, dogs); cited from earlier work
bladder function = conditions: rat model with rhythmic bladder contraction; cited from earlier work
[3] = system: bladder overactivity induced by oxyhemoglobine; assay: Cystometry with wake rats damaged by oxyhemoglobin (urge incontinence model); format: in vivo, Sprague-Dawley rat
[4] = after use of the substances, OxyHb 2.5 × 10^−4M, buprenorphine 0.005 mg/kg iv where given
[5] = before use of the substances, OxyHb 2.5 × 10^−4M, buprenorphine 0.005 mg/kg iv where given
[6] = change compared to the pre-basis

In the case of “21-cyclopropyl-7-α-[(S)-1-hydroxy-1,2,2-trimethylpropyl]-6,14-endo-ethano-6,7,8,14-tetrahydrooripavine [buprenorphine]”, the Cmax ([1]; 0.4 mg sublingual dose) is given as 0.50 ng/mL, the Cmax ([1]; 0.8 mg sublingual dose) is given as 1.04 ng/mL and the plasma concentration ([2]; about 5 minutes after intravenous 0.3 mg) is given as “about 9 ng/ml”. The plasma concentration ([2]; about 3 hours after intramuscular 0.3-mg dose) was “about 0.4 ng/ml”, the “time of mean peak plasma concentration” value ([2]; intravenous single dose of about 0.3 mg) was at most 2 min and the “influence on the function of bladder or urethra” value (bladder or urethra) was “does not have a significant influence”.
For `COc1cccc(C2(O)CCCCC2CN(C)C)c1` (stereo not shown) [tramadol], the “effect on bladder function” value (bladder function) is given as “positive effect”.
With OxyHb the “ICI inter-contraction interval, after (a)” value [3, 4] was “a: 3.33 ± 0.18 min”, the “MP Micturition pressure, after (a)” value [3, 4] was “a: 97 ± 5 cm H2O” and the “TP threshold pressure, after (a)” value [3, 4] was “a: 9.84 ± 1.56 cm H2O”. The “bladder capacity, after (a)” value [3, 4] was “a: 0.65 ± 0.06 ml”, the “ICI inter-contraction interval, before (b)” value [3, 5] was “b: 4.96 ± 0.33 min” and the “MP Micturition pressure, before (b)” value [3, 5] was “b: 59 ± 8 cm H2O”. For the same molecule, the “TP threshold pressure, before (b)” value [3, 5] was “b: 8.72 ± 1.31 cm H2O”, the “bladder capacity, before (b)” value [3, 5] was “b: 0.92 ± 0.10 ml” and the “ICI inter-contraction interval, Diff.” value [3, 6] was “Diff.: −32.9%”. The “MP Micturition pressure, Diff.” value [3, 6] was “Dif.: +64.4%”, the “TP threshold pressure, Diff.” value [3, 6] was “Diff.: +12.8%” and the “bladder capacity, Diff.” value [3, 6] was “Diff.: −29.3%”.
